According to PMC10648875 (Antimicrobial Agents and Chemotherapy, 2023):
Like-named read-outs stand apart in the source and are kept apart here.

Key:
CTX-M-14 = CTX-M-14 (Escherichia coli, UniProt Q9L5C7); assay: Ki app of β-lactamase inhibition, purified enzyme; assay type: biochemical; details: 10-minute preincubation; nitrocefin substrate
Method: (§1) The majority of purified β-lactamase enzymes used in the study were either expressed and purified internally ([35]) or obtained from Emerald Biostructures (Bainbridge Island, WA, USA). L1 enzyme was purified as described in reference ([36]).
(§2) Enzymes were mixed with BLIs at concentrations varying from 160 to 0.0027 µM in 50-mM Na-phosphate pH7.0, 0.1-mg/mL bovide serum albumin (BSA) (buffer A; 20-µM ZnCl2 was also added for all metalloenzymes) and incubated for 10 minutes at 37°C. Nitrocefin (50 µM) (10 µM for SHV-12) or 100 µM of imipenem (prewarmed at 37°C for 10 minutes) was added, and substrate cleavage profiles were recorded at 37°C at 490 nm every 10 seconds for 10 minutes or at 294 nm every 30 seconds for 1 hour for nitrocefin and imipenem, respectively. […] Ki app values (Ki for metalloenzymes) were calculated by the method of Waley ([37]).

CTX-M-15 = CTX-M-15 (Escherichia coli, UniProt Q9EXV5); assay: Ki app of β-lactamase inhibition, purified enzyme; assay type: biochemical; details: 10-minute preincubation; nitrocefin substrate
Method: as §1, §2

P99 = P99 (Enterobacter cloacae, UniProt P05364); assay: Ki app of β-lactamase inhibition, purified enzyme; assay type: biochemical
Method: as §1, §2

SHV-12 = SHV-12 (Klebsiella pneumoniae, UniProt P0AD64, E235K/G234S/L31Q); assay: Ki app of β-lactamase inhibition, purified enzyme; assay type: biochemical
Method: as §1, §2

IMP-1 = IMP-1 (Serratia marcescens, UniProt P52699); assay: Ki of metallo-β-lactamase inhibition, purified enzyme; assay type: biochemical
Method: as §1, §2

VIM-1 = VIM-1 (Pseudomonas aeruginosa, UniProt A0A0F7KYQ8); assay: as above; assay type: biochemical; details: 10-minute preincubation; nitrocefin substrate
Method: as §1, §2

NDM-1 = NDM-1 (Klebsiella pneumoniae, UniProt C7C422); assay: biochemical
Method: as §1, §2

[1] = tested on: Escherichia coli NCTC 13353 (ECM7514), CTX-M-15; assay: MIC, reference strain; assay type: cell-based; details: Escherichia coli, NCTC13353; CTX-M-15; BLI at the fixed concentration in brackets; read-out: MIC
Method: (§3) Other BL/BLI combinations were tested at their recommended BLI concentrations. MIC values for the partner antibiotics and BLIs alone were also determined (Table 2; Table S1). All investigational and marketed BLIs enhanced the potency of antibiotics according to their spectrum of inhibition. MIC values against CLSI-approved QC strains were within acceptable ranges for drugs and combinations tested (Table 3).
(§4) Isolates were tested for antimicrobial susceptibility using the broth microdilution methodology per CLSI M07 (2018) guidelines ([40]). JMI Laboratories produced frozen-form 96-well panels with cation-adjusted Mueller-Hinton broth as the testing medium. Current CLSI quality assurance practices were followed when performing the susceptibility tests. MIC values were validated by concurrently testing the following CLSI-recommended ([27]) QC reference strains: E. coli NCTC 13353 (CTX-M-15), Klebsiella pneumoniae ATCC BAA-2814 (KPC-3), Klebsiella pneumoniae ATCC BAA-1705 (KPC-2), and K. pneumoniae ATCC 700603 (SHV-18). The inoculum density during susceptibility testing was monitored by bacterial colony counts. Where applicable, QC ranges for tested reference strains were those approved or published by the CLSI ([27]). Meropenem was purchased from Carbosynth; ceftolozane was synthesized at Acme Bioscience, Palo Alto, CA, USA; all other antibiotics were from Sigma Aldrich. Xeruborbactam was synthesized at Qpex Biopharma, San Diego, CA, USA. Avibactam was purchased from eNovation, Chemicals LLC, Bridgewater, NJ, USA. Vaborbactam was synthesized at The Medicines Company, San Diego, CA. Relebactam, taniborbactam, and relebactam were synthesized at Acme Bioscience.

[2] = tested on: E. coli CDC 0069 (EC1106), NDM-1; assay: MIC, reference strain; assay type: cell-based; details: Escherichia coli, BLI at the fixed concentration in brackets, read-out: MIC
Method: as §3
as §4, with “([27]).” for “([27]). Meropenem was purchased from Carbosynth; ceftolozane was synthesized at Acme Bioscience, Palo Alto, CA, USA; all other antibiotics were from Sigma Aldrich. Xeruborbactam was synthesized at Qpex Biopharma, San Diego, CA, USA. Avibactam was purchased from eNovation, Chemicals LLC, Bridgewater, NJ, USA. Vaborbactam was synthesized at The Medicines Company, San Diego, CA. Relebactam, taniborbactam, and relebactam were synthesized at Acme Bioscience.”

[3] = tested on: K. pneumoniae ATCC BAA-1705 (KPM1123), KPC-2; assay: MIC, reference strain; assay type: cell-based; details: Klebsiella pneumoniae, ATCCBAA1705; KPC-2; BLI at the fixed concentration in brackets; read-out: MIC
Method: as §3
as §4, with “([27]).” for “([27]). Meropenem was purchased from Carbosynth; ceftolozane was synthesized at Acme Bioscience, Palo Alto, CA, USA; all other antibiotics were from Sigma Aldrich. Xeruborbactam was synthesized at Qpex Biopharma, San Diego, CA, USA. Avibactam was purchased from eNovation, Chemicals LLC, Bridgewater, NJ, USA. Vaborbactam was synthesized at The Medicines Company, San Diego, CA. Relebactam, taniborbactam, and relebactam were synthesized at Acme Bioscience.”

[4] = tested on: K. pneumoniae ATCC BAA-2814 (KP1074), KPC-3; assay: MIC, reference strain; assay type: cell-based; details: Klebsiella pneumoniae, ATCCBAA2814; KPC-3; BLI at the fixed concentration in brackets; read-out: MIC
Method: as §3
as §4, with “([27]).” for “([27]). Meropenem was purchased from Carbosynth; ceftolozane was synthesized at Acme Bioscience, Palo Alto, CA, USA; all other antibiotics were from Sigma Aldrich. Xeruborbactam was synthesized at Qpex Biopharma, San Diego, CA, USA. Avibactam was purchased from eNovation, Chemicals LLC, Bridgewater, NJ, USA. Vaborbactam was synthesized at The Medicines Company, San Diego, CA. Relebactam, taniborbactam, and relebactam were synthesized at Acme Bioscience.”

[5] = tested on: K. pneumoniae CDC 0135 (KP1291), VIM-1; assay: MIC, reference strain; assay type: cell-based; details: Klebsiella pneumoniae, BLI at the fixed concentration in brackets, read-out: MIC
Method: as §3
as §4, with “([27]).” for “([27]). Meropenem was purchased from Carbosynth; ceftolozane was synthesized at Acme Bioscience, Palo Alto, CA, USA; all other antibiotics were from Sigma Aldrich. Xeruborbactam was synthesized at Qpex Biopharma, San Diego, CA, USA. Avibactam was purchased from eNovation, Chemicals LLC, Bridgewater, NJ, USA. Vaborbactam was synthesized at The Medicines Company, San Diego, CA. Relebactam, taniborbactam, and relebactam were synthesized at Acme Bioscience.”

[6] = tested on: Klebsiella pneumoniae ATCC 700603 (KPM2881), SHV-18; assay: MIC, reference strain; assay type: cell-based; details: Klebsiella pneumoniae, ATCC700603; SHV-18; BLI at the fixed concentration in brackets; read-out: MIC
Method: as §3
as §4, with “([27]).” for “([27]). Meropenem was purchased from Carbosynth; ceftolozane was synthesized at Acme Bioscience, Palo Alto, CA, USA; all other antibiotics were from Sigma Aldrich. Xeruborbactam was synthesized at Qpex Biopharma, San Diego, CA, USA. Avibactam was purchased from eNovation, Chemicals LLC, Bridgewater, NJ, USA. Vaborbactam was synthesized at The Medicines Company, San Diego, CA. Relebactam, taniborbactam, and relebactam were synthesized at Acme Bioscience.”

[7] = tested on: P. aeruginosa BAA-3197 (PA5257), KPC-2; assay: MIC, reference strain; assay type: cell-based; details: Pseudomonas aeruginosa, BAA3197; KPC-2; BLI at the fixed concentration in brackets; read-out: MIC
[8] = tested on: ESBL-producing Enterobacterales; assay: organism not typed; assay type: cell-based; details: ESBL (N = 521); xeruborbactam and vaborbactam fixed 8 mg/L, all other BLIs 4 mg/L
[9] = tested on: carbapenem-resistant Enterobacterales (subset of 507 isolates); assay: organism not typed; assay type: cell-based; details: xeruborbactam and vaborbactam fixed 8 mg/L, all other BLIs 4 mg/L
[10] = tested on: ESBL-producing and carbapenem-resistant Enterobacterales (All, N = 1028); assay: organism not typed; assay type: cell-based; details: All (N = 1028); xeruborbactam and vaborbactam fixed 8 mg/L, all other BLIs 4 mg/L
KPC-2 = KPC-2 (Klebsiella pneumoniae, UniProt Q9F663); assay: Ki app of β-lactamase inhibition, purified enzyme; assay type: biochemical; details: 10-minute preincubation; nitrocefin substrate
Method: as §1, §2

OXA-23 = OXA-23 (Acinetobacter baumannii, UniProt Q9L4P2); assay: Ki app of β-lactamase inhibition, purified enzyme; assay type: biochemical; details: 10-minute preincubation; nitrocefin substrate
Method: as §1, §2

OXA-48 = OXA-48 (Klebsiella pneumoniae, UniProt Q6XEC0); assay: Ki app of β-lactamase inhibition, purified enzyme; assay type: biochemical, Enterobacterales; details: 10-minute preincubation; nitrocefin substrate
Method: as §1, §2

Chain of NDM-1 (C7C422 29-270 limits assumed): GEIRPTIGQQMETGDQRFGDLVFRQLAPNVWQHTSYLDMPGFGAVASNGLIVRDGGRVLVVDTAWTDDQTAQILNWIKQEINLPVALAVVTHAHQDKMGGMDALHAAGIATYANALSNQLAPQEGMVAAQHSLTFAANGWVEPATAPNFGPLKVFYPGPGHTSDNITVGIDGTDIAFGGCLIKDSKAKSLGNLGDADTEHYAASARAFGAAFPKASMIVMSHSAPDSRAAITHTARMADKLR
Chain of CTX-M-15 (Q9EXV5 entry or part of it): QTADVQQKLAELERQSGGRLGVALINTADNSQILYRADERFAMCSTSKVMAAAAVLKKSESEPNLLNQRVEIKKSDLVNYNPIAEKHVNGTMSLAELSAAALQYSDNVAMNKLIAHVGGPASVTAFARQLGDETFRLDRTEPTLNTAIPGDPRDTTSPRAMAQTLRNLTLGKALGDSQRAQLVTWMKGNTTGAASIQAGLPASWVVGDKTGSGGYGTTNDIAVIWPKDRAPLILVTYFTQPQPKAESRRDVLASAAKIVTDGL
Chain of CTX-M-14 (Q9L5C7 entry or part of it): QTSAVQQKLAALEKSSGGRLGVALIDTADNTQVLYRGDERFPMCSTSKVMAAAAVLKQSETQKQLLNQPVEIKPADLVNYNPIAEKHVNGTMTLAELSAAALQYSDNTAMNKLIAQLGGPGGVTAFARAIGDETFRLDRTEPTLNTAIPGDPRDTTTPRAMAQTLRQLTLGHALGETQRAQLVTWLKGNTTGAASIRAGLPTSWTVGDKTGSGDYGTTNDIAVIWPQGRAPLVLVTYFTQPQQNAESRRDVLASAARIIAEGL
Chain of IMP-1 (P52699 19-246 limits assumed): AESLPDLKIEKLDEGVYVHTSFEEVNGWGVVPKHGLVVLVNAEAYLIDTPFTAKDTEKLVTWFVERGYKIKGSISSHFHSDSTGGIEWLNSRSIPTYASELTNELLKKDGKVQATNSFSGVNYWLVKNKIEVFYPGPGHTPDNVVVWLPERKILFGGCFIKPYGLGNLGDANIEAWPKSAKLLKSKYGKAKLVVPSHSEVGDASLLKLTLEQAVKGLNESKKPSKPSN
Chain of P99 (P05364 21-381): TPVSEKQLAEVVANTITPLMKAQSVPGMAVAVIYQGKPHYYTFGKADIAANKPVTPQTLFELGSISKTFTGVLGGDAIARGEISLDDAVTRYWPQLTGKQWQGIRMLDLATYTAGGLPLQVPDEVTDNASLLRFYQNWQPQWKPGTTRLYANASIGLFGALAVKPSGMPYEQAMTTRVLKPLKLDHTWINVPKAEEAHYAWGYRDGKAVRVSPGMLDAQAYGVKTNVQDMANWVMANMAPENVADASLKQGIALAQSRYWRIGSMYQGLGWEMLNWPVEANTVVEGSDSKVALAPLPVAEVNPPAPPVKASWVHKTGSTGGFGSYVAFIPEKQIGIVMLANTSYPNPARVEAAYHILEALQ
Chain of OXA-48 (Q6XEC0 23-265 limits assumed): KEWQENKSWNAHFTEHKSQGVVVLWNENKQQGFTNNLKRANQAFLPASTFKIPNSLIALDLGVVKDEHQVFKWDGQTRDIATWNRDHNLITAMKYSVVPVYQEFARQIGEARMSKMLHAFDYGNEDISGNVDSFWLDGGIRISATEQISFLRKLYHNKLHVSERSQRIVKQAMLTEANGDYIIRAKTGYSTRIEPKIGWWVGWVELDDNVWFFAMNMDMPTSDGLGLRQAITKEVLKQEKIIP
Chain of KPC-2 (Q9F663 25-293 limits assumed): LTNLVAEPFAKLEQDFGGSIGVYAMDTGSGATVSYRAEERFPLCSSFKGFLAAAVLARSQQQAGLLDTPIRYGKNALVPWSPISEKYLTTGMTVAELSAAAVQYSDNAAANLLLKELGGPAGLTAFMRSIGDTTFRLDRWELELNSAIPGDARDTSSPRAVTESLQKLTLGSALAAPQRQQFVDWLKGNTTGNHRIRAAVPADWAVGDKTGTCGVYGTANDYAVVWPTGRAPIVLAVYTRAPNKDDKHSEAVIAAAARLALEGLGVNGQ
Chain of OXA-23 (Q9L4P2 18-273): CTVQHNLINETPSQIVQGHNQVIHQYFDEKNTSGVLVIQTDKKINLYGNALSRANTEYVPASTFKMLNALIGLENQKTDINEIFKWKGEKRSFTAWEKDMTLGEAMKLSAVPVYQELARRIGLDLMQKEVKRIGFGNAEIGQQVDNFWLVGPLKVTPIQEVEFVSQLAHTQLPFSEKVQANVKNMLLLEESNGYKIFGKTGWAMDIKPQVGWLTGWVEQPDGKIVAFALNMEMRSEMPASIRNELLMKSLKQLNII
Chain of SHV-12 (P0AD64 22-286 L31Q/G234S/E235K): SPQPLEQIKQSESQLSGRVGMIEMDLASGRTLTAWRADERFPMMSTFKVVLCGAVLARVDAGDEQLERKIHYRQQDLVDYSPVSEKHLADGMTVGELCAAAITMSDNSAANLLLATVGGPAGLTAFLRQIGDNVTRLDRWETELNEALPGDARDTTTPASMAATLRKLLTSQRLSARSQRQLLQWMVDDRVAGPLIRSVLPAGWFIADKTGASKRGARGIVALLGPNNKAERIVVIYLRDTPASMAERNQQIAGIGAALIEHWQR

`NC(=O)[C@@H]1CC[C@@H]2CN1C(=O)N2OS(=O)(=O)O` [Avibactam, avibactam] gave a Ki (CTX-M-14) of 0.41 ± 0.13 nM, a Ki (CTX-M-15) of 0.18 ± 0.08 nM and a Ki (P99; Ki app) of 10 ± 2 nM. It also gave a Ki (SHV-12) of 0.24 ± 0.07 nM, a Ki (IMP-1) greater than 160 µM and a Ki (VIM-1) greater than 160 µM. The Ki (NDM-1) was greater than 160 µM, the MIC [1] was 16 µg/mL and the MIC [2] was 8 µg/mL. For the same compound, the MIC [3] was 16 µg/mL, the MIC [4] was 64 µg/mL and the MIC [5] was greater than 64 µg/mL. For the same compound, the MIC [6] was 32 µg/mL and the MIC [7] was greater than 64 µg/mL.

`CC(C)(O/N=C(\C(=O)N[C@@H]1C(=O)N2C(C(=O)[O-])=C(C[n+]3ccccc3)CS[C@H]12)c1csc(N)n1)C(=O)O` [CAZ, ceftazidime] gave an MIC [1] of 64 µg/mL, an MIC [2] greater than 64 µg/mL and an MIC [3] of 64 µg/mL. It also gave an MIC [4] greater than 64 µg/mL, an MIC [5] greater than 64 µg/mL and an MIC [6] of 16 µg/mL. The MIC [7] was greater than 64 µg/mL.

`CO/N=C(\C(=O)N[C@@H]1C(=O)N2C(C(=O)O)=C(CSc3nc(=O)c(O)nn3C)CS[C@H]12)c1csc(N)n1` [CRO] gave an MIC50 [8] greater than 32 µg/mL, an MIC90 [8] greater than 32 µg/mL and an MIC50 ([9]; CRE (N = 507)) greater than 32 µg/mL. The MIC90 ([9]; CRE (N = 507)) was greater than 32 µg/mL, the MIC50 ([9]; KPC (N = 193)) was greater than 32 µg/mL and the MIC90 ([9]; KPC (N = 193)) was greater than 32 µg/mL. It also gave an MIC50 ([9]; MBL (N = 168)) greater than 32 µg/mL, an MIC90 ([9]; MBL (N = 168)) greater than 32 µg/mL and an MIC50 ([9]; Non-CP CRE (N = 50)) greater than 32 µg/mL. For the same compound, the MIC90 ([9]; Non-CP CRE (N = 50)) was greater than 32 µg/mL, the MIC50 ([9]; OXA-48-like (N = 96)) was greater than 32 µg/mL and the MIC90 ([9]; OXA-48-like (N = 96)) was greater than 32 µg/mL. The MIC50 [10] was greater than 32 µg/mL and the MIC90 [10] was greater than 32 µg/mL.

Compound `CC1=C[C@@H]2CN(C(=O)N2OS(=O)(=O)O)[C@@H]1C(N)=O` [Durlobactam, durlobactam] has a Ki (CTX-M-14) of 0.37 ± 0.16 nM, a Ki (CTX-M-15) of 0.21 ± 0.12 nM and a Ki (KPC-2) of 1.7 ± 0.4 nM. For the same compound, the Ki (OXA-23) was 94 ± 32 nM, the Ki (P99; 10-minute preincubation, nitrocefin substrate, read-out: Ki app) was 0.17 ± 0.08 nM and the Ki (OXA-48) was 0.72 ± 0.27 nM. For the same compound, the Ki (IMP-1) was greater than 160 µM, the Ki (VIM-1) was greater than 160 µM and the Ki (NDM-1) was greater than 160 µM.
